Test: Apparent permeability in dog MDCK2 cells incubated for 3 hrs
Format: ADME, cell-based, Canis lupus familiaris
Conditions: mdck-ii

SMILES | Papp
CC[C@H](C)[C@@H]1NC(=O)CCCNc2cccc(c2)CNC(=O)[C@@H]2CCCN2C(=O)[C@H](Cc2ccc(F)cc2)NC(=O)[C@H](CC2CCCCC2)NC1=O | 2.9 ×10⁻⁶ cm/s
CC[C@H](C)[C@@H]1NC(=O)CNc2cccc(c2)CCNC(=O)[C@@H]2CCCN2C(=O)[C@H](Cc2ccc(F)cc2)NC(=O)[C@@H](CC(C)C)NC1=O | 5.7 ×10⁻⁶ cm/s
CC(C)C[C@H]1NC(=O)[C@@H](C(C)C)NC(=O)CNc2cccc(c2)CCNC(=O)[C@@H]2CCCN2C(=O)[C@H](Cc2ccc(F)cc2)NC1=O | 4 ×10⁻⁶ cm/s
CC[C@H](C)[C@@H]1NC(=O)CNc2cccc(c2)CNC(=O)[C@@H]2CCCN2C(=O)[C@H](Cc2ccc(F)cc2)NC(=O)[C@H](CC2CCCCC2)NC1=O | 3.9 ×10⁻⁶ cm/s
CC[C@H](C)[C@@H]1NC(=O)CNc2cccc(c2)CCNC(=O)[C@@H]2CCCN2C(=O)[C@@H](Cc2ccccc2)NC(=O)[C@@H](CC(C)C)NC1=O | 7.6 ×10⁻⁶ cm/s
CC[C@H](C)[C@@H]1NC(=O)CNc2ccccc2CCNC(=O)[C@@H]2CCCN2C(=O)[C@H](Cc2ccc(F)cc2)NC(=O)[C@@H](CC(C)C)NC1=O | 12.9 ×10⁻⁶ cm/s
CC(C)C[C@H]1NC(=O)[C@@H](C(C)C)NC(=O)CNc2ccccc2CCNC(=O)[C@@H]2CCCN2C(=O)[C@H](Cc2ccc(F)cc2)NC1=O | 5.5 ×10⁻⁶ cm/s
CC[C@H](C)[C@@H]1NC(=O)CNc2ccccc2CCNC(=O)[C@@H]2CCCN2C(=O)[C@@H](Cc2ccccc2)NC(=O)[C@@H](CC(C)C)NC1=O | 14.5 ×10⁻⁶ cm/s

Reference: ChEMBL document CHEMBL4396902, “Development of a Platform To Enable Efficient Permeability Evaluation of Novel Organo-Peptide Macrocycles” (ACS Med Chem Lett, 2019)
